Results taken from patent US6103875A, “Antifungal compounds from pseudomonas viridiflava” (Pharmagenesis, Inc., priority 1997, dated 2000).
Values after ≈ are worked out from the molar mass of the structure shown.

Columns and labels:
Candida kefir 46764 = test: Minimal inhibitory concentration test (modified NCCLS protocol); format: cell-based, Candida kefir (ATCC 46764)
Description: (§1) All fungi used for test purposes for sensitivity to the ecomycins were obtained from the ATCC or from the mycological collection at Montana State University, Bozeman, Mont.
(§2) Samples of the semi-purified ecomycin preparation, purified Ecomycin A, and Ecomycin B were tested, along with a known antifungal compound, Amphotericin B, in a minimal inhibitory concentration test (MIC) modification of the NCCLS protocol (Galgiani, et al., 1995).

Candida albicans 90028 = test: as above; format: cell-based, Candida albicans (ATCC 90028)
Description: as §1, §2

Candida glabrata 90030 = test: as above; format: cell-based, Candida glabrata (ATCC 90030); conditions: Nakaseomyces glabratus
Description: as §1, §2

Candida albicans = test: Synergy with amphotericin B, inhibition of growth in 96-well plates; format: cell-based
Description: Briefly, in turning now to the illustrative experiments described in Example 11, varying amounts of amphotericin B were added to varying concentrations of an exemplary composition containing the antifungal lipopeptides of the present invention, extract EB-273, followed by a determination of the resulting inhibition of growth of Candida albicans.
Experiments were conducted with the semi-purified preparation of ecomycins (extract EB-273), added individually or in combination with sub-fungicidaldoses of Amphotericin B, to 96-well plates inoculated with C. albicans.

[1] = tested on: Candida parasilopsis 90018; test: Minimal inhibitory concentration test (modified NCCLS protocol); format: cell-based, Candida parasilopsis (ATCC 90018)
Description: as §1, §2

[2] = tested on: Cryptococcus neoformans 90012; test: as above; format: cell-based, Cryptococcus neoformans (ATCC 90012)
Description: as §1, §2

[3] = tested on: Cryptococcus neoformans 90013; test: as above; format: cell-based, Cryptococcus neoformans (ATCC 90013)
Description: as §1, §2

[4] = Thomas, 1986; cited from earlier work
Candida albicans 90029 = test: Minimal inhibitory concentration test (modified NCCLS protocol); format: cell-based, Candida albicans (ATCC 90029)
Description: as §1, §2

[5] = cited from earlier work

C[C@@H]1[C@H](O)[C@@H](C)/C=C/C=C/C=C/C=C/C=C/C=C/C=C/[C@H](O[C@@H]2O[C@H](C)[C@@H](O)[C@H](N)[C@@H]2O)C[C@@H]2O[C@](O)(C[C@@H](O)C[C@@H](O)[C@H](O)CC[C@@H](O)C[C@@H](O)CC(=O)O[C@H]1C)C[C@H](O)[C@H]2C(=O)O [Amphotericin B]
MIC (Candida kefir 46764): 0.1 µg/mL (≈ 0.108 µM) | MIC (Candida albicans 90028): 0.6 µg/mL (≈ 0.649 µM) | MIC (Candida glabrata 90030): 0.6 µg/mL (≈ 0.649 µM) | inhibition at 0.035 µg/mL (Candida albicans; Candida albicans, read-out: inhibitory effect): ~30% | inhibition at 0.07 µg/mL (Candida albicans; Candida albicans, amphotericin B alone, 70 ng/ml, read-out: inhibitory effect): ~25% | inhibition at 0.105 µg/mL (Candida albicans; Candida albicans, amphotericin B alone, 105 ng/ml, read-out: inhibitory effect): ~43% | inhibition at 0.14 µg/mL (Candida albicans; Candida albicans, amphotericin B alone, 140 ng/ml, read-out: inhibitory effect): ~55% | inhibition at 0.175 µg/mL (Candida albicans; Candida albicans, amphotericin B alone, 175 ng/ml, read-out: inhibitory effect): ~84% | enhancement of inhibitory effect (Candida albicans; amphotericin B 70 ng/ml + extract EB-273 about 8-12 μg/ml or greater vs. amphotericin B alone): nearly four-fold | inhibitory effect (Candida albicans; amphotericin B 70 ng/ml + extract EB-273 at about 8-12 μg/ml or greater): ~100% | enhancement of activity (Candida albicans; amphotericin B 105 ng/ml + extract EB-273 vs. amphotericin B alone): approximate two-fold enhancement | enhancement of activity (Candida albicans; amphotericin B 140 ng/ml + extract EB-273 vs. amphotericin B alone): approximate two-fold enhancement | interaction between amphotericin B and ecomycin extract (isobolographic analyses) (Candida albicans; amphotericin B + ecomycin extract EB-273, range of dosage responses): synergistic rather than additive | inhibition of C. albicans (Candida albicans; amphotericin B alone, 210 ng/ml): nearly complete inhibition | reduction of amount of amphotericin B required to effectively suppress growth of Candida (Candida albicans; in combination with the lipopeptides composition): at least 30% | reduction of amphotericin B concentration required for substantially complete inhibition (Candida albicans; with EB-273, [210 ng/ml-175 ng/ml]/210×100): 16% | reduction of amphotericin B concentration required for substantially complete inhibition (Candida albicans; with a suitable concentration of EB-273, fourth of four): 66% | reduction of amphotericin B concentration required for substantially complete inhibition (Candida albicans; with a suitable concentration of EB-273, second of four): 33% | reduction of amphotericin B concentration required for substantially complete inhibition (Candida albicans; with a suitable concentration of EB-273, third of four): 50% | MIC [1]: 0.1 µg/mL (≈ 0.108 µM) | MIC [2]: 0.1 µg/mL (≈ 0.108 µM) | MIC [3]: 0.3 µg/mL (≈ 0.325 µM) | toxicity, undesirable side-effects [4]: leucopenia, thrombocytopenia, renal tubular acidosis, hypokalemia, hypomagnesemia, headaches, nausea, and anemia | MIC (Candida albicans 90029): 0.6 µg/mL (≈ 0.649 µM) | oral absorption [5]: not adsorbed orally
